Results taken from ChEMBL document CHEMBL4387748, “Chalcone derivatives bearing chromen or benzo[f]chromen moieties: Design, synthesis, and evaluations of anti-inflammatory, analgesic, selective COX-2 inhibitory activities” (Bioorg Med Chem Lett, 2019).

What was measured:
Mus musculus [1] = assay: Anti-inflammatory activity in mouse assessed as inhibition of xylene-induced ear edema at 30 mg/kg, ip dosed prior to xylene challenge and measured 1 hr post xylene injection relative to control; assay type: functional
Mus musculus [2] = assay: Analgesic activity in mouse at 30 mg/kg, ip measured after 60 mins by hot plate technique relative to control; assay type: functional; settings: 1 h
[3] = Selectivity index, ratio of IC50 for COX1 (unknown origin) to IC50 for COX2 (unknown origin); settings: Homo sapiens
[4] = molecular target: Prostaglandin G/H synthase 2 (Ovis aries) (UniProt P79208)
[5] = molecular target: Prostaglandin G/H synthase 1 (Ovis aries) (UniProt P05979)

Prostaglandin G/H synthase 2 (Ovis aries), sequence (P79208 whole entry, looked up): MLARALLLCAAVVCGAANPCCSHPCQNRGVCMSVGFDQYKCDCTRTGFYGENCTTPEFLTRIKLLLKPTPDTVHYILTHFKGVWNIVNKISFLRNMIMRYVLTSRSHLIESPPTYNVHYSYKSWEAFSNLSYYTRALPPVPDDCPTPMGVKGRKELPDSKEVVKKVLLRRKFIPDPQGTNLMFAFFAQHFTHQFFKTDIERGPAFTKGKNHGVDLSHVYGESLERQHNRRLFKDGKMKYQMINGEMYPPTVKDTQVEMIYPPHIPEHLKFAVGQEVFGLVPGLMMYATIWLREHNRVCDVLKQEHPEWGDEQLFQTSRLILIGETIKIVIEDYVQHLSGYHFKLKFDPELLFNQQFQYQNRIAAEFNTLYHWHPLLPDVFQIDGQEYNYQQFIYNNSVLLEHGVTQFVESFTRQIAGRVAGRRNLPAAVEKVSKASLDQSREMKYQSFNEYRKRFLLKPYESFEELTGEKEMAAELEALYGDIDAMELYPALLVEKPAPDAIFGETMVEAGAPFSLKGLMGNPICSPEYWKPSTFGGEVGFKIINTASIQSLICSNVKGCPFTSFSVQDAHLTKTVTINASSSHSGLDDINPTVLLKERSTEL

| Compound | inhibition in vivo at 30 mg/kg (Mus musculus [1]) | inhibition in vivo at 30 mg/kg (Mus musculus [2]) | Ratio IC50 [3] | IC50 [4] | IC50 [5] |
| --- | --- | --- | --- | --- | --- |
| O=C(/C=C/C1=Cc2c(ccc3ccccc23)OC1)c1ccccc1Br | 79.8% | 96.2 to 100% | – | – | – |
| Nc1ccc(C(=O)/C=C/C2=Cc3c(ccc4ccccc34)OC2)cc1 | 67.1% | 96.2 to 100% | – | – | – |
| O=C(/C=C/C1=Cc2ccccc2OC1)c1ccc([N+](=O)[O-])cc1 | 50.8% | 85.1% | – | – | – |
| O=C(/C=C/C1=Cc2ccccc2OC1)c1ccc(Br)cc1 | 66% | 66.7 to 100% | 17.2 | 0.42 µM | 7.21 µM |
| Cc1ccc(C(=O)/C=C/C2=Cc3ccccc3OC2)cc1C | 48.1% | 66.7 to 100% | – | – | – |
| O=C(/C=C/C1=Cc2ccccc2OC1)c1ccc(Cl)cc1 | 56.1% | 66.7 to 100% | – | – | – |
| COc1ccc2c(c1)c(CC(=O)O)c(C)n2C(=O)c1ccc(Cl)cc1 [INDOMETHACIN] | 64.3 to 82.2% | – | – | – | – |
| O=C(/C=C/C1=Cc2c(ccc3ccccc23)OC1)c1cccc(F)c1 | 70.1% | 96.2 to 100% | – | – | – |
| O=C(/C=C/C1=Cc2c(ccc3ccccc23)OC1)c1ccc(Cl)cc1Cl | 84.1% | 100% | 27.3 | 0.29 µM | 7.92 µM |
| Cc1ccc(C(=O)/C=C/C2=Cc3c(ccc4ccccc34)OC2)cc1C | 54.2% | 96.2 to 100% | – | – | – |
| CCc1ccc(C(=O)/C=C/C2=Cc3c(ccc4ccccc34)OC2)cc1 | 83.1% | 96.2 to 100% | 20.7 | 0.43 µM | 8.89 µM |
| O=C(/C=C/C1=Cc2c(ccc3ccccc23)OC1)c1ccc(C(F)(F)F)cc1 | 83.6% | 100% | 26.1 | 0.33 µM | 8.63 µM |
| O=C(/C=C/C1=Cc2c(ccc3ccccc23)OC1)c1ccccc1Cl | 66.1% | 96.2 to 100% | – | – | – |
| Nc1ccc(C(=O)/C=C/C2=Cc3ccccc3OC2)cc1 | 52.6% | 66.7 to 100% | – | – | – |
| CN(C)c1ccc(C(=O)/C=C/C2=Cc3ccccc3OC2)cc1 | 57.3% | 66.7 to 100% | – | – | – |
| COc1ccc(C(=O)/C=C/C2=Cc3c(ccc4ccccc34)OC2)cc1OC | 55.1% | 96.2 to 100% | – | – | – |
| O=C(/C=C/C1=Cc2c(ccc3ccccc23)OC1)c1cccc(Cl)c1 | 75% | 96.2 to 100% | – | – | – |
| O=C(/C=C/C1=Cc2c(ccc3ccccc23)OC1)c1ccc(Cl)cc1 | 67.1% | 96.2 to 100% | – | – | – |
| O=C(/C=C/C1=Cc2ccccc2OC1)c1ccccc1Cl | 52.3% | 66.7 to 100% | – | – | – |
| O=C(/C=C/C1=Cc2ccccc2OC1)c1ccc(F)cc1 | 65.6% | 66.7 to 100% | 22.5 | 0.37 µM | 8.32 µM |

| Compound | inhibition in vivo at 30 mg/kg (Mus musculus [1]) | inhibition in vivo at 30 mg/kg (Mus musculus [2]) | Ratio IC50 [3] | IC50 [4] | IC50 [5] |
| --- | --- | --- | --- | --- | --- |
| O=C(/C=C/C1=Cc2ccccc2OC1)c1ccccc1Br | 56.6% | 66.7 to 100% | – | – | – |
| O=C(/C=C/C1=Cc2c(ccc3ccccc23)OC1)c1ccc([N+](=O)[O-])cc1 | 76.3% | 100% | 31.1 | 0.25 µM | 7.77 µM |
| O=C(/C=C/C1=Cc2c(ccc3ccccc23)OC1)c1ccc(F)cc1 | 57.3% | 96.2 to 100% | – | – | – |
| Cc1ccc(C(=O)/C=C/C2=Cc3c(ccc4ccccc34)OC2)cc1 | 74.6% | 96.2 to 100% | – | – | – |
| O=C(/C=C/C1=Cc2ccccc2OC1)c1ccc(C(F)(F)F)cc1 | 75.5% | 100% | 9.34 | 0.83 µM | 7.75 µM |
| O=C(/C=C/C1=Cc2c(ccc3ccccc23)OC1)c1ccccc1F | 73.3% | 96.2 to 100% | 20.7 | 0.31 µM | 6.41 µM |
| CCc1ccc(C(=O)/C=C/C2=Cc3ccccc3OC2)cc1 | 68.1% | 66.7 to 100% | 15.9 | 0.39 µM | 6.22 µM |
| O=C(/C=C/C1=Cc2c(ccc3ccccc23)OC1)c1ccc(Br)cc1 | 57.5% | 96.2 to 100% | – | – | – |
| O=C(/C=C/C1=Cc2ccccc2OC1)c1ccccc1F | 64.4% | 66.7 to 100% | – | – | – |
| COc1ccc(C(=O)/C=C/C2=Cc3c(ccc4ccccc34)OC2)cc1 | 79.3% | 96.2 to 100% | 23.8 | 0.38 µM | 9.04 µM |
| O=C(/C=C/C1=Cc2ccccc2OC1)c1cccc(F)c1 | 52.4% | 66.7 to 100% | – | – | – |
| O=C(/C=C/C1=Cc2ccccc2OC1)c1cccc(Br)c1 | 51.7% | 66.7 to 100% | – | – | – |
| Cc1ccc(C(=O)/C=C/C2=Cc3ccccc3OC2)cc1 | 53.1% | 66.7 to 100% | – | – | – |
| O=C(/C=C/C1=Cc2c(ccc3ccccc23)OC1)c1cccc(Br)c1 | 67.9% | 96.2 to 100% | – | – | – |
| O=C(/C=C/C1=Cc2ccccc2OC1)c1ccc(Cl)cc1Cl | 53.3% | 66.7 to 100% | – | – | – |
| O=C(/C=C/C1=Cc2ccccc2OC1)c1cccc(Cl)c1 | 51% | 66.7 to 100% | – | – | – |
| CN(C)c1ccc(C(=O)/C=C/C2=Cc3c(ccc4ccccc34)OC2)cc1 | 67.2% | 96.2 to 100% | – | – | – |
| COc1ccc(C(=O)/C=C/C2=Cc3ccccc3OC2)cc1 | 66.2% | 66.7 to 100% | 20 | 0.46 µM | 9.2 µM |
| COc1ccc(C(=O)/C=C/C2=Cc3ccccc3OC2)cc1OC | 67.6% | 66.7 to 100% | 15.4 | 0.46 µM | 7.08 µM |
